Reference: publication PMC9818267, “Brain Natriuretic Peptide Protects Cardiomyocytes from Apoptosis and Stimulates Their Cell Cycle Re-Entry in Mouse Infarcted Hearts” (Cells, 2022)
Like-named read-outs stand apart in the source and are kept apart here. No end group written: not given here.

Columns and labels:
[1] = test system: cardiomyocytes (CMs); experiment: Immunostaining of cell cycle markers (BrdU, Ki67, pH3, Aurkb) in CMs of BNP-treated hearts; format: in vivo, mouse
Description: For all experiments with adult mice, BrdU (1 mg/mL) was added into the drinking water during the entire period of the experiments. BrdU (40 µL/mice, 10 mg/mL) was ip injected in newborn mice on day 5 and 9 after birth.
Cells or OCT heart sections (5 µm-thick cryosections) were washed in PBS 1X and fixed in paraformaldehyde (2%) or formol (4%) for 10 min at RT. After 10 min of permeabilization (0.3% Triton x-100 in PBS) and one hour of blocking with normal serum, sections were probed with primary antibodies overnight at 4 °C (Supplementary File S1). The second day, the secondary antibody was added on cells or heart sections. Slides were mounted with Dabco (Sigma) and pictures were captured with Nikon Eclipse TS100 or 90i microscope. Images were processed with Adobe Photoshop CC2015.
For the detection of BrdU incorporation, heart slides were fixed 10 min in 2% PFA, DNA was denatured 1 h at RT in HCl 2N before neutralization in Na Borate 0.1 M pH = 8.5 during 2 × 5 min. Then, sections were probed with primary antibodies overnight at 4 °C (Supplementary File S1).

[2] = test system: Nkx2.5+ myocytes; conditions: cited from earlier work
[3] = test system: cleaved caspase-3; experiment: Western blot cleaved caspase-3 in infarct zone; format: in vivo, mouse; conditions: ZI one day after MI, BNP vs saline
From the text: At sacrifice, mice were weighted, the heart excised and weighted. The apex was embedded into OCT and slowly frozen for immunohistochemistry analysis. For quantitative RT-PCR (qRT-PCR) and/or Western blot analysis, the rest of the heart was quickly frozen in N2. Hearts from infarcted animals were separated into 3 zones for molecular and cellular analysis including CM isolation: (1) the infarction zone (ZI), (2) the border zone (BZ) and (3) the remote zone (RZ). The different areas were processed under microscopy: the ZI area is easily detectable by the color and the presence of the suture, the BZ corresponds to 0.5 mm tissue around the ZI and the rest of the heart is the RZ.
(§1) Total proteins were extracted from CMs isolated from adult infarcted and unmanipulated neonatal and adult hearts. Proteins were transferred to nitrocellulose membranes (Biorad) before incubation with primary antibodies overnight at 4 °C. Secondary antibodies were added 1 h at RT in the dark (Supplementary File S1). The signal was detected and quantified with the Odyssey infrared imaging system (LI-COR. Biosciences, Bad Homburg, Germany). All results were normalized to the tubulin protein level or to the total protein level thanks to stainings with the Revert 700 Total protein Stain (LI-COR).

[4] = test system: ERK; experiment: Western blot pERK/ERK in adult CMs stimulated in vitro; format: cell-based, mouse; conditions: adult CMs stimulated with BNP for 2–3 h in vitro, vs untreated
Description: CM isolations were performed thanks to the Langendorff-Free method. […] Thereafter, the heart was removed from the chest and the left ventricle was perfused with enzymatic solution containing collagenase II (120 U/mL), collagenase IV (120 U/mL) (Worthington, Biochemical Corporation, USA) and protease XIV (0.05 mg/mL or 0.175 U/mL) (Sigma-Aldrich, Merck, Darmstadt, Germany). In each experiment, a full digestion of the heart was obtained. After digestion, cardiac cells were dissociated by gentle pipetting, filtered and collected after 25 min sedimentation. For infarcted hearts, the tissue was separated into the three zones (ZI, BZ and RZ). The three different areas were weighted before gentle pipetting.
as §1

[5] = test system: cardiomyocytes (CMs); experiment: CM nucleation status and cross-sectional area; format: in vivo, mouse; conditions: vs saline
Description: After 25 min sedimentation, CMs were used for molecular analysis, Western blot analysis, flow cytometry analysis or fixed with 2.5% PFA 15 min at room temperature (RT) and stained with DAPI to evaluate the frequency of mono and bi-nucleated CMs.
CM area was assessed by α actinin and laminin stainings and image J software (1.53t version from the 24.08.2022, Mac OX X, Bethesda, MD, USA) for processing using CIF outliner cell Plugin. Only CMs with circularity >0.5 were considered.

[6] = cited from earlier work
[7] = test system: DAPI+ Troponin I+ cells; experiment: Flow cytometry of apoptotic CMs (DAPI+ Troponin I+ cells) after isolation; format: in vivo, mouse; conditions: CMs isolated from adult hearts injected during 2 weeks with BNP; saline 3.5 ± 0.5%
[8] = test system: cardiomyocytes (CMs); experiment: qRT-PCR on CMs isolated from treated hearts; format: in vivo, mouse; conditions: CMs from border area of infarcted hearts 10 days after surgery, BNP vs saline
[9] = infarct and border area 10 days after MI, BNP vs saline
[10] = neonatal BNP-treated hearts vs saline
[11] = unmanipulated adult hearts, BNP vs saline

Brain Natriuretic Peptide (SQGSTLRVQQRPQNSKVTHISSCFGHKIDRIGSVSRLGCNALKLL; not fully specified; ends and bridges not checked; UniProt P40753 77-121, looked up) [BNP, synthetic mouse BNP (1–45) peptide (Bachem, catalog number H-7558)]
increase of percentage of BrdU+ GFP+ α actinin+ cells among GFP+ α actinin+ cells ([1]; ZI+BZ of infarcted Myh6 MerCreMer mice injected with tamoxifen, BNP vs saline): 20% | increase of percentage of CMs expressing Aurkb [1, 9]: 2.8 × | increase of percentage of CMs expressing Ki67 [1, 9]: 50% | increase of percentage of CMs expressing pH3 [1, 9]: 40% | increase of percentage of CMs incorporating BrdU [1, 9]: 70% | number of Aurkb+ CMs undergoing cytokinesis or binucleation ([1]; infarcted hearts, among Aurkb+ CMs, BNP vs saline): slightly increased | increase of number of Aurkb+ CMs undergoing cytokinesis or binucleation [1, 10]: 1.4 fold | increase of number of CMs expressing Aurkb [1, 10]: 47.5% | increase of number of CMs expressing Ki67 [1, 10]: 15% | increase of number of CMs expressing pH3 [1, 10]: 41% | increase of number of CMs incorporating BrdU [1, 10]: 23% | increase of percentage of CMs expressing pH3 [1, 11]: 94% | increase of percentage of CMs incorporating BrdU [1, 11]: 67% | increase in Nkx2.5+ myocytes ([2]; adult BNP-treated hearts): 68% | increase in Nkx2.5+ myocytes ([2]; neonatal BNP-treated hearts): 22.5% | caspase 3 protein level change [3]: −42% | pERK/ERK ratio increase [4]: 1.9 × | percentages of mononucleated CMs ([5]; all BNP-treated hearts (infarcted, neonatal, adult)): increased | frequency of small CMs (cross-sectional area) ([5]; all areas of BNP-treated infarcted hearts): significantly higher | half-life in the circulation ([6]; healthy persons): about 18 min | half-life in the plasma ([6]; patients with congestive heart failure): ~12 min | percentage of DAPI+ CMs [7]: 4 ± 1% | myh7 mRNA level increase [8]: 2.7 ×
